≈ marks a conversion by molar mass, not a printed value. Read-outs that look alike come from different tables or passages of the source.
Assays:
[1] = system: Proteus vulgaris OXK US; experiment: Minimum inhibitory concentration, Proteus vulgaris OXK US; format: cell-based; conditions: read-out: Minimum Inhibitory Concentration
[2] = system: Pseudomonas melanogenum IAM 1655; experiment: Minimum inhibitory concentration, Pseudomonas melanogenum IAM 1655; format: cell-based
[3] = system: Staphylococcus aureus Smith; experiment: Minimum inhibitory concentration, Staphylococcus aureus Smith; format: cell-based; conditions: read-out: Minimum Inhibitory Concentration
[4] = system: Pseudomonas aeruginosa ATCC 8689; experiment: Minimum inhibitory concentration, Pseudomonas aeruginosa ATCC 8689; format: cell-based
[5] = system: Pseudomonas aeruginosa 99; experiment: Minimum inhibitory concentration, Pseudomonas aeruginosa 99; format: cell-based; conditions: Pseudomonas aeruginosa 99 (inactivates aminoglycosides with an acetyltransferase)
[6] = system: Mycobacterium phlei; experiment: Minimum inhibitory concentration, Mycobacterium phlei; format: cell-based; conditions: Mycolicibacterium phlei, read-out: Minimum Inhibitory Concentration
[7] = system: Sarcina lutea ATCC 9341; experiment: Minimum inhibitory concentration, Sarcina lutea ATCC 9341; format: cell-based; conditions: Micrococcus luteus
[8] = system: Salmonella enteritidis 1891; experiment: Minimum inhibitory concentration, Salmonella enteritidis 1891; format: cell-based; conditions: Salmonella enterica, read-out: Minimum Inhibitory Concentration
[9] = system: Escherichia coli K-12 R-5; experiment: Minimum inhibitory concentration, Escherichia coli K-12 R-5; format: cell-based; conditions: for MIC: K12R5, Escherichia coli K-12 R-5 (inactivates aminoglycosides with an acetyltransferase)
[10] = system: Escherichia coli NIHJ; experiment: Minimum inhibitory concentration, Escherichia coli NIHJ; format: cell-based; conditions: read-out: Minimum Inhibitory Concentration
[11] = system: Shigella sonnei II 37148; experiment: Minimum inhibitory concentration, Shigella sonnei II 37148; format: cell-based; conditions: II37148
[12] = system: Escherichia coli K-12 ML-1629; experiment: Minimum inhibitory concentration, Escherichia coli K-12 ML-1629; format: cell-based; conditions: K12ML1629; Escherichia coli K-12 ML-1629 (inactivates aminoglycosides with a phosphotransferase)
[13] = system: Micrococcus flavus ATCC 10240; experiment: Minimum inhibitory concentration, Micrococcus flavus ATCC 10240; format: cell-based
[14] = system: Pseudomonas aeruginosa GN-315; experiment: Minimum inhibitory concentration, Pseudomonas aeruginosa GN-315; format: cell-based
[15] = system: Staphylococcus aureus Onuma (PC-,SM-,Mac-resistant); experiment: Minimum inhibitory concentration, Staphylococcus aureus Onuma (PC-,SM-,Mac-resistant); format: cell-based; conditions: read-out: Minimum Inhibitory Concentration
[16] = system: Staphylococcus aureus (PC-,SM-,TC-,KM-,Mac-resistant); experiment: Minimum inhibitory concentration, Staphylococcus aureus (PC-,SM-,TC-,KM-,Mac-resistant); format: cell-based; conditions: read-out: Minimum Inhibitory Concentration
[17] = Solubility; format: physicochemical; conditions: free base (lyophilized product)
[18] = in vivo; conditions: mouse, iv
[19] = Pseudomonas, IAM1655, read-out: Minimum Inhibitory Concentration
[20] = Pseudomonas aeruginosa, ATCC8689, read-out: Minimum Inhibitory Concentration
[21] = ATCC9341, read-out: Minimum Inhibitory Concentration
[22] = ATCC10240, Micrococcus flavus ATCC 10240, read-out: Minimum Inhibitory Concentration
[23] = GN315, Pseudomonas aeruginosa GN-315, read-out: Minimum Inhibitory Concentration
[24] = Staphylococcus aureus Onuma (PC-,SM-,Mac-resistant)
[25] = Staphylococcus aureus (PC-,SM-,TC-,KM-,Mac-resistant)
[26] = IAM1655, Pseudomonas melanogenum IAM 1655, read-out: Minimum Inhibitory Concentration
[27] = ATCC8689, Pseudomonas aeruginosa ATCC 8689, read-out: Minimum Inhibitory Concentration
[28] = ATCC9341, Sarcina lutea ATCC 9341, read-out: Minimum Inhibitory Concentration
[29] = Pseudomonas aeruginosa, GN315, read-out: Minimum Inhibitory Concentration
[30] = Micrococcus flavus, ATCC10240, read-out: Minimum Inhibitory Concentration

NC[C@@H]1CC[C@@H](N)[C@@H](O[C@H]2[C@H](O)[C@@H](O[C@H]3O[C@H](CO)[C@@H](O)[C@H](N)[C@H]3O)[C@H](N)C[C@@H]2N)O1 [DKB, Dibekacin, reference compound]
MIC ([1]; Proteus vulgaris): 1.56 µg/mL (≈ 3.45 µM) | MIC [2, 19]: 1.56 µg/mL (≈ 3.45 µM) | MIC ([3]; Staphylococcus aureus Smith): 0.78 µg/mL (≈ 1.73 µM) | MIC [4, 20]: 1.56 µg/mL (≈ 3.45 µM) | MIC [5]: 1.56 µg/mL (≈ 3.45 µM) | MIC [6]: 1.56 µg/mL (≈ 3.45 µM) | MIC [7, 21]: 1.56 µg/mL (≈ 3.45 µM) | MIC ([8]; Salmonella enteritidis 1891): 0.78 µg/mL (≈ 1.73 µM) | MIC [9]: 100 µg/mL (≈ 221 µM) | MIC ([10]; Escherichia coli NIHJ): 0.78 µg/mL (≈ 1.73 µM) | MIC [11]: 1.56 µg/mL (≈ 3.45 µM) | MIC [12]: 1.56 µg/mL (≈ 3.45 µM) | MIC [13, 22]: 3.13 µg/mL (≈ 6.93 µM) | MIC [14, 23]: 100 µg/mL (≈ 221 µM) | MIC [15, 24]: 0.19 µg/mL (≈ 0.421 µM) | MIC [16, 25]: 0.19 µg/mL (≈ 0.421 µM)

CNC1C(O)C(OC2C(N)CC(N)C(OC3OC(CN)CCC3O)C2O)OC(CO)C1(C)O (centres unmarked) [I-A2, 3"-N-Methyl-4"-C-methyl-3',4'-dideoxykanamycin A or its 4"-epimer]
MIC ([1]; Proteus vulgaris): 3.13 µg/mL (≈ 6.51 µM) | MIC [2, 26]: 6.25 µg/mL (≈ 13 µM) | MIC ([3]; Staphylococcus aureus): 3.13 µg/mL (≈ 6.51 µM) | Solubility in acetone [17]: sparingly soluble | Solubility in chloroform, benzene, ethyl acetate, butyl acetate, ether, n-hexane, etc. [17]: insoluble | Solubility in ethanol [17]: sparingly soluble | Solubility in methanol [17]: soluble | Solubility in water [17]: Very easily soluble | MIC [4, 27]: 6.25 µg/mL (≈ 13 µM) | MIC [5]: 12.5 µg/mL (≈ 26 µM) | MIC ([6]; Mycobacterium phlei): 1.56 µg/mL (≈ 3.25 µM) | MIC [7, 28]: 0.78 µg/mL (≈ 1.62 µM) | MIC ([8]; Salmonella enteritidis 1891): 1.56 µg/mL (≈ 3.25 µM) | MIC [9]: > 100 µg/mL | MIC ([10]; Escherichia coli NIHJ): 1.56 µg/mL (≈ 3.25 µM) | MIC [11]: 3.13 µg/mL (≈ 6.51 µM) | MIC [12]: 3.13 µg/mL (≈ 6.51 µM) | MIC [13, 22]: 0.78 µg/mL (≈ 1.62 µM) | MIC [14, 23]: > 100 µg/mL | MIC ([15]; Staphylococcus aureus): 3.13 µg/mL (≈ 6.51 µM) | MIC [16, 25]: 6.25 µg/mL (≈ 13 µM)

CNCC1CCC(N)C(OC2C(N)CC(N)C(OC3OC(CO)C(C)(O)C(NC)C3O)C2O)O1 (centres unmarked) [I-B1, 3"-N-Methyl-4"-C-methyl-3',4'-dideoxy-6'-N-methylkanamycin B or its 4"-epimer]
MIC ([1]; Proteus vulgaris OXK US): 0.78 µg/mL (≈ 1.58 µM) | MIC [2, 19]: 1.56 µg/mL (≈ 3.16 µM) | MIC ([3]; Staphylococcus aureus Smith): 0.39 µg/mL (≈ 0.79 µM) | Solubility in acetone [17]: sparingly soluble | Solubility in chloroform, benzene, ethyl acetate, butyl acetate, ether, n-hexane, etc. [17]: insoluble | Solubility in ethanol [17]: soluble | Solubility in methanol [17]: soluble | Solubility in water [17]: Very easily soluble | MIC [4, 20]: 3.13 µg/mL (≈ 6.34 µM) | MIC [5]: 3.13 µg/mL (≈ 6.34 µM) | MIC ([6]; Mycobacterium phlei): 0.78 µg/mL (≈ 1.58 µM) | MIC [7, 28]: 0.39 µg/mL (≈ 0.79 µM) | MIC ([8]; Salmonella enteritidis 1891): 0.78 µg/mL (≈ 1.58 µM) | inhibited the growth of resistant bacteria ([9]; Escherichia coli K-12 R-5, inactivates Kanamycin B by acetylating the 6'-amino group): inhibited the growth | MIC [9]: 1.56 µg/mL (≈ 3.16 µM) | MIC ([10]; Escherichia coli NIHJ): 0.78 µg/mL (≈ 1.58 µM) | MIC [11]: 0.78 µg/mL (≈ 1.58 µM) | MIC [12]: 1.56 µg/mL (≈ 3.16 µM) | MIC [13, 22]: 0.39 µg/mL (≈ 0.79 µM) | inhibited the growth of resistant bacteria ([14]; Pseudomonas aeruginosa GN 315, inactivates Kanamycin B by acetylating the 6'-amino group): inhibited the growth | MIC [14, 29]: 1.56 µg/mL (≈ 3.16 µM) | MIC [15, 24]: 0.19 µg/mL (≈ 0.385 µM) | MIC [16, 25]: 0.19 µg/mL (≈ 0.385 µM)

CNC1C(O)C(OC2C(N)CC(N)C(OC3OC(CN)CCC3N)C2O)OC(CO)C1(C)O (centres unmarked) [I-B2, 3"-N-Methyl-4"-C-methyl-3',4'-dideoxykanamycin B or its 4"-epimer]
MIC ([1]; Proteus vulgaris OXK US): 0.78 µg/mL (≈ 1.63 µM) | MIC [2, 19]: 1.56 µg/mL (≈ 3.25 µM) | MIC ([3]; Staphylococcus aureus Smith): 0.39 µg/mL (≈ 0.813 µM) | Solubility in acetone [17]: sparingly soluble | Solubility in chloroform, benzene, ethyl acetate, butyl acetate, ether, n-hexane, etc. [17]: insoluble | Solubility in ethanol [17]: sparingly soluble | Solubility in methanol [17]: soluble | Solubility in water [17]: Very easily soluble | MIC [4, 27]: 3.13 µg/mL (≈ 6.53 µM) | MIC [5]: 6.25 µg/mL (≈ 13 µM) | MTD [18]: 125 mg/kg | MIC ([6]; Mycobacterium phlei): 0.39 µg/mL (≈ 0.813 µM) | MIC [7, 28]: 0.39 µg/mL (≈ 0.813 µM) | MIC ([8]; Salmonella enteritidis 1891): 0.39 µg/mL (≈ 0.813 µM) | MIC [9]: 25 µg/mL (≈ 52.1 µM) | MIC ([10]; Escherichia coli NIHJ): 0.78 µg/mL (≈ 1.63 µM) | MIC [11]: 0.78 µg/mL (≈ 1.63 µM) | MIC [12]: 1.56 µg/mL (≈ 3.25 µM) | MIC [13, 22]: 0.39 µg/mL (≈ 0.813 µM) | MIC [14, 23]: 50 µg/mL (≈ 104 µM) | MIC [15, 24]: 0.19 µg/mL (≈ 0.396 µM) | MIC [16, 25]: 0.19 µg/mL (≈ 0.396 µM)

NCC1OC(OC2C(N)CC(N)C(OC3OC(CO)C(O)C(N)C3O)C2O)C(O)C(O)C1O (centres unmarked) [KM-A, Kanamycin A, reference compound]
MIC ([1]; Proteus vulgaris): 6.25 µg/mL (≈ 12.9 µM) | MIC [2, 26]: > 100 µg/mL | MIC ([3]; Staphylococcus aureus): 3.13 µg/mL (≈ 6.46 µM) | MIC [4, 20]: > 100 µg/mL | MIC [5]: 100 µg/mL (≈ 206 µM) | MIC [6]: 1.56 µg/mL (≈ 3.22 µM) | MIC [7, 21]: 3.13 µg/mL (≈ 6.46 µM) | MIC ([8]; ENTERITIDIS): 3.13 µg/mL (≈ 6.46 µM) | MIC [9]: > 100 µg/mL | MIC ([10]; Escherichia coli): 3.13 µg/mL (≈ 6.46 µM) | MIC [11]: 3.13 µg/mL (≈ 6.46 µM) | MIC [12]: > 100 µg/mL | MIC [13, 30]: 6.25 µg/mL (≈ 12.9 µM) | MIC [14, 29]: > 100 µg/mL | MIC ([15]; Staphylococcus aureus): 1.56 µg/mL (≈ 3.22 µM) | MIC ([16]; Staphylococcus aureus): > 100 µg/mL

NC[C@H]1O[C@H](O[C@H]2[C@H](O)[C@@H](O[C@H]3O[C@H](CO)[C@@H](O)[C@H](N)[C@H]3O)[C@H](N)C[C@@H]2N)[C@H](N)[C@@H](O)[C@@H]1O [KM-B, Kanamycin B, reference compound]
MIC ([1]; Proteus vulgaris): 6.25 µg/mL (≈ 12.9 µM) | MIC [2, 19]: 50 µg/mL (≈ 103 µM) | MIC [4, 20]: 100 µg/mL (≈ 207 µM) | MIC [5]: 50 µg/mL (≈ 103 µM) | MIC [6]: 3.13 µg/mL (≈ 6.47 µM) | MIC [7, 21]: 0.78 µg/mL (≈ 1.61 µM) | MIC ([8]; ENTERITIDIS): 1.56 µg/mL (≈ 3.23 µM) | MIC [9]: > 100 µg/mL | MIC ([10]; Escherichia coli): 1.56 µg/mL (≈ 3.23 µM) | MIC [11]: 1.56 µg/mL (≈ 3.23 µM) | MIC [12]: > 100 µg/mL | MIC [13, 30]: 1.56 µg/mL (≈ 3.23 µM) | MIC [14, 23]: 100 µg/mL (≈ 207 µM) | MIC [15, 24]: 0.78 µg/mL (≈ 1.61 µM) | MIC [16, 25]: 50 µg/mL (≈ 103 µM)

Source: patent US4209511A, “Aminoglycoside antibiotics and process for production thereof” (Yamanouchi Pharmaceutical Co., Ltd., priority 1978, dated 1980)
